{"source": "patent US8653132B2", "about": "“Phosphaplatins and their use in pharmaceutical compositions” (Ohio University, priority 2007, dated 2014)", "key": {"[1]": {"tested_on": "UMSCC10b (Cisplatin-sensitive) cells", "test": "Cytotoxicity in head and neck cancer cells, cisplatin-sensitive", "type": "cell-based, human", "method": "(§1) The UMSCC10b (Cisplatin-sensitive) and UMSCC10b/15s (Cisplatin-resistant) cell lines derived from human head and neck squamous cell cancer were lines were obtained from Dr. Stephen B. Howell of the University of California, Dan Diego. Cells were cultured in 1640 RPMI with 10% fetal bovine serum, 100 units/ml penicillin and 100 μg/m1 of streptomycin. Cells were seeded into 24-well plates with approximately 20,000 cells/500 μl of media in each well plate. Cells were exposed to dach-2 with variable concentrations ranging from 1.12 μM to maximum of 72 μM. Stock solutions of dach-2 complex were prepared and aliquots of these solutions were added to make those effective concentrations. Cells were then allowed to grow for 72 hours. Twelve different concentrations were used in this study. Each concentration had one control for a total of 12 controls."}, "[2]": {"tested_on": "guanine base", "test": "Guanine base binding by proton NMR", "settings": "cisplatin after 48 hours, am-2 96 hours, dach-2 106 hours", "method": "FIG. 12 is a comparison of guanine base binding (the predominant DNA binding site of cisplatin) among cisplatin (bottom), am-2 (middle), and dach-2 (top) by proton NMR spectroscopy. […] The bottom spectrum was recorded after 48 hours. The middle and top spectra were recorded after 96 and 106 hours, respectively.\nProton NMR spectroscopic experiments were conducted on a Bruker 500 MHz NMR instrument in 99% (atom) D2O with a water suppression pulse sequence. Samples contained cisplatin (2.0 mM) or pyrodach-2 (2.0 mM) and nucleotides (5′-dGMP, 5′-dAMP, dGpG (5.0 mM)), and, single- and double stranded DNA (calf thymus, 5.0 mM) at pH 7.0 maintained by phosphate and carbonate buffers (10-20 mM). Reactions of cisplatin (0.25 mM) and pyrodach-2 (0.25 mM) with a synthetic 25-mer: 5′-[…]-3′ (SEQ ID NO: 1) (0.25 mM) were also performed under identical conditions. Reactions were carried out up to 7 days, and ^1H and ^31P NMR spectra were recorded at regular time intervals. Usually, a pulse width of 5 μs with a 1.0 s repetition delay was used for the measurements. Typically, a sweepwidth of 10,000 Hz and 32 K data points were selected to collect the Free Induction Decays. A line broadening factor of 1 Hz was for applied Fourier transformation. The chemical shifts, with reference to H—O-D peak, are at 4.67 ppm."}, "[3]": {"tested_on": "A2780 cells", "test": "Cellular accumulation of platinum by atomic absorption, A2780", "type": "cell-based, human", "settings": "for Cellular accumulation of platinum: 1 hr exposure", "method": "(§2) Platinum content was quantitatively estimated on a Graphite Furnace Atomic Absorption Spectrometer (Perkin Elmer AA-600) from calibration curves established by using cisplatin or pyrodach-2 in water. Cells (5×10^6) were seeded in T75 cm^2 flasks. After 24 h, these cells were then treated with the different concentrations (0, 10, 20, 30 and 50 μM) of cisplatin and pyrodach-2. After 1 hr exposure with the platinum complexes, the drug-containing medium was removed and the cells were washed with ice-cold phosphate-buffered saline (PBS). The cells were then trypsinized and centrifuged into a pellet. Cell pellets were digested in concentrated HNO3 and H2O2 prior to analysis, according to the method of McGahan. Data reported in Table 4 were collected from three independent experiments each was carried out in duplicate. For the cisplatin accumulation, data were obtained from triplicate runs from a single sample at a given concentration."}, "[4]": {"tested_on": "A2780 human ovarian cancer cells", "test": "Clonogenic assay, A2780", "type": "cell-based", "settings": "1 hour drug treatment, 1 week colony formation, read-out: IC50 A780", "method": "Human ovarian cancer cells, A2780, were obtained from Dr. Thomas Hamilton (Fox Chase Cancer Center, Philadelphia, Pa.). Cells were cultured on monolayer using RPMI 1640 supplemented with 10% fetal bovine serum, 2 mM glutamine, 0.25 units/mL insulin and penicillin/streptomycin in a 37 degrees C. incubator continuously gassed with 5% CO2. Cells were subcultured using 0.0625% trypsin in HBSS to maintain cells in exponential growth.\nIC50 values were determined using a clonogenic assay. Briefly, 500 A2780 cells from a single cell suspension were plated onto 60mm Petri plates 24 hours before drug treatment to permit cell attachment. On the day of drug treatment, the medium was decanted and replaced with the drug and these treated cells were placed back into the 37 degrees C. incubator for 1 hour. Triplicate plates were set up for each drug concentration. After the 1 hour drug treatment, the drug containing medium was decanted and replaced with fresh medium. These plates were returned to the 37 degrees C. incubator for 1 week for colony formation. Colonies were fixed and stained using 2% crystal violet in absolute methanol. Colonies containing more than 50 cells were scored. The number of scored colonies from the triplicate plates was averaged and this number was divided by the number of cells plated to obtain a value for the fraction of cells forming colonies. These values for fraction of cells forming colonies were then corrected for plating efficiency by dividing it by the number of cells forming colonies in plates that were not treated with drug."}, "[5]": {"tested_on": "BAX", "test": "Apoptotic gene array, real-time PCR: BAX", "type": "cell-based", "settings": "preliminary", "method": "(§3) Preliminary gene expression experiments involving complexes of the present invention as compared to cisplatin (data not shown) were carried out with an apoptotic array containing 84 genes that includes the BCL2 superfamily, both pro- and anti-apoptotic, caspases, the BIR-family, TNF receptor […] factors, p53 and its congeners, and fas associated members by real-time PCR. A closer look at the two sets of gene expressions clearly indicates a number of differences in the expression patterns. […] Specifically, fas was over-expressed by 6-fold compared to the control, and TNFRS genes such as TNFRSF-10B was overexpressed by 2-3 folds over controls. These latter receptor factors belong to the fas superfamily."}, "[6]": {"tested_on": "UMSCC10b/15s (Cisplatin-resistant) cells", "test": "Cytotoxicity in head and neck cancer cells, cisplatin-resistant", "type": "cell-based, human", "method": "as §1"}, "[7]": {"tested_on": "TNFRSF-10B", "test": "Apoptotic gene array, real-time PCR: TNFRSF-10B", "type": "cell-based", "settings": "preliminary", "method": "as §3"}, "[8]": {"tested_on": "BAK1", "test": "Apoptotic gene array, real-time PCR: BAK1", "type": "cell-based", "settings": "preliminary", "method": "as §3"}, "[9]": {"tested_on": "A2780/C30 cells", "test": "Cellular accumulation of platinum by atomic absorption, A2780/C30", "type": "cell-based, human", "settings": "1 hr exposure", "method": "as §2"}, "[10]": {"test": "pKa from 31P chemical shift as a function of pH", "type": "physicochemical"}, "[11]": {"settings": "calculated from phosphorus-31 chemical shifts"}}, "note": "Like-named read-outs stand apart in the source and are kept apart here.", "data": [{"smiles": "NC1CCCCC1N.O=P([O-])(O)OP(=O)([O-])O.[Pt+2]", "note": "[dach-2, (Trans-1,2-cyclohexanediamine)(dihydrogenpyrophosphato)platinum(II)]", "values": [{"measurement": "IC50", "setting": "[1]; 72 hours growth, estimated, read-out: IC50 for UMSCC10b (Cisplatin-sensitive)", "value": "< 1", "unit": "µM"}, {"measurement": "IC50", "setting": "[1]; FIG. 9 legend, read-out: IC50 cisplatin-sensitive head and neck cancer cells", "value": "< 1", "unit": "µM"}, {"measurement": "guanine base binding (H8 signal)", "setting": "[2]", "value": "exhibits a signal for the free guanine base at 8.05 ppm"}, {"measurement": "Cellular accumulation of platinum", "setting": "[3]; A2780, 10 μM", "value": "1.00 ± 0.10", "unit": "ng/10^6 cells"}, {"measurement": "Cellular accumulation of platinum", "setting": "[3]; A2780, 20 μM", "value": "1.50 ± 0.30", "unit": "ng/10^6 cells"}, {"measurement": "Cellular accumulation of platinum", "setting": "[3]; A2780, 30 μM", "value": "3.00 ± 1.00", "unit": "ng/10^6 cells"}, {"measurement": "Cellular accumulation of platinum", "setting": "[3]; A2780, 50 μM", "value": "5.00 ± 0.30", "unit": "ng/10^6 cells"}, {"measurement": "accumulation in A2780 cells", "setting": "[3]; at 10 μM concentration", "value": 1.0, "unit": "ng Pt/10^6 cells"}, {"measurement": "IC50", "setting": "[4]", "value": "20 ± 4", "unit": "µM"}, {"measurement": "BAX overexpression", "setting": "[5]", "value": "2-3 folds"}, {"measurement": "IC50", "setting": "[6]; 72 hours growth, read-out: IC50 for UMSCC10b/15s (Cisplatin-resistant)", "value": 5, "unit": "µM"}, {"measurement": "IC50", "setting": "[6]; FIG. 9 legend, read-out: IC50 cisplatin-resistant head and neck cancer cells", "value": "< 5", "unit": "µM"}, {"measurement": "TNFRSF-10B overexpression over controls", "setting": "[7]", "value": "2-3 folds"}, {"measurement": "BAK1 overexpression", "setting": "[8]", "value": "2-3 folds"}, {"measurement": "Cellular accumulation of platinum", "setting": "[9]; A2780/C30, 10 μM", "value": "0.10 ± 0.08", "unit": "ng/10^6 cells"}, {"measurement": "Cellular accumulation of platinum", "setting": "[9]; A2780/C30, 20 μM", "value": "1.00 ± 0.02", "unit": "ng/10^6 cells"}, {"measurement": "Cellular accumulation of platinum", "setting": "[9]; A2780/C30, 30 μM", "value": "1.00 ± 0.02", "unit": "ng/10^6 cells"}, {"measurement": "Cellular accumulation of platinum", "setting": "[9]; A2780/C30, 50 μM", "value": "2.00 ± 0.10", "unit": "ng/10^6 cells"}, {"measurement": "pKa1", "setting": "[10]; [11]", "value": "2.6 ± 0.2"}, {"measurement": "pKa2", "setting": "[10]; [11]", "value": "4.4 ± 0.2"}, {"measurement": "pKa1 (value in parentheses)", "setting": "[10]; second value printed in parentheses under pKa1, not explained", "value": "(3.3 ± 0.1)"}]}]}
